Results: the supplement of paper PMC11061612

How the values were obtained:
[1] = test system: NCI-H1838 (Lung Adenocarcinoma); experiment: combination Emax (second highest fraction inhibited in the dose matrix, 72 h); higher = more inhibition; extreme values may be limits of the assay
In short: (§1)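 After 24 hours at 37°C and 5% CO2 in 1536-well plates, cells in DMEM/F12 or RPMI plus 10% FBS received two-drug dose matrices for 72 hours. Viability came from CellTiter-Glo 2.0 luminescence and was scaled as inhibition, anchored at 0 by vehicle wells and at 1 by blank wells. Combination Emax is taken as the second-highest inhibition in the matrix, and Bliss excess as the observed combination effect less EA + EB − EA·EB, with EA and EB the single-agent effects.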

[2] = test system: OACM5-1 (Esophageal Adenocarcinoma); experiment: as above
In short: as §1

Hey (Ovarian Carcinoma) [3] = experiment: as above
In short: as §1

[4] = test system: CADO-ES1 (Ewing's Sarcoma); experiment: as above
In short: as §1

[5] = test system: EJM (Plasma Cell Myeloma); experiment: as above
In short: as §1

[6] = test system: KOPN-8 (B-Lymphoblastic Leukemia); experiment: as above
In short: as §1

[7] = test system: LC-1-sq (Squamous Cell Lung Carcinoma); experiment: as above
In short: as §1

[8] = test system: HCC1937 (Breast Carcinoma); experiment: as above
In short: as §1

[9] = test system: ALL-SIL (T-Lymphoblastic Leukemia); experiment: as above
In short: as §1

[10] = test system: NCI-H650 (Lung Adenocarcinoma); experiment: as above
In short: as §1

[11] = test system: NCI-H1092 (Small Cell Lung Carcinoma); experiment: as above
In short: as §1

EW-1 (Ewing's Sarcoma) [12] = experiment: as above
In short: as §1

[13] = test system: HCC1500 (Breast Carcinoma); experiment: as above
In short: as §1

[14] = test system: NCI-H2122 (Lung Adenocarcinoma); experiment: as above
In short: as §1

[15] = test system: HCC2998 (Colorectal Carcinoma); experiment: as above
In short: as §1

[16] = test system: G-401 (Other Solid Carcinomas); experiment: as above
In short: as §1

[17] = test system: NCI-H1838 (Lung Adenocarcinoma); experiment: Bliss excess, mean over the matrix (fraction); higher = more synergy
In short: as §1

[18] = test system: OACM5-1 (Esophageal Adenocarcinoma); experiment: as above
In short: as §1

Hey (Ovarian Carcinoma) [19] = experiment: as above
In short: as §1

[20] = test system: CADO-ES1 (Ewing's Sarcoma); experiment: as above
In short: as §1

[21] = test system: EJM (Plasma Cell Myeloma); experiment: as above
In short: as §1

[22] = test system: KOPN-8 (B-Lymphoblastic Leukemia); experiment: as above
In short: as §1

[23] = test system: LC-1-sq (Squamous Cell Lung Carcinoma); experiment: as above
In short: as §1

[24] = test system: HCC1937 (Breast Carcinoma); experiment: as above
In short: as §1

[25] = test system: ALL-SIL (T-Lymphoblastic Leukemia); experiment: as above
In short: as §1

[26] = test system: NCI-H650 (Lung Adenocarcinoma); experiment: as above
In short: as §1

[27] = test system: NCI-H1092 (Small Cell Lung Carcinoma); experiment: as above
In short: as §1

EW-1 (Ewing's Sarcoma) [28] = experiment: as above
In short: as §1

[29] = test system: HCC1500 (Breast Carcinoma); experiment: as above
In short: as §1

[30] = test system: NCI-H2122 (Lung Adenocarcinoma); experiment: as above
In short: as §1

[31] = test system: HCC2998 (Colorectal Carcinoma); experiment: as above
In short: as §1

[32] = test system: G-401 (Other Solid Carcinomas); experiment: as above
In short: as §1
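Throughout, for Bliss excess, mean over the matrix: after 72 h of two-drug dosing.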

Structure (SMILES): COc1nnc2ccc(N3CCC(c4ccc(OCCN5CCN(C)C(=O)[C@H]5C)cc4)CC3)nn12 [AZD5153] + CN(CC[C@H](CSC1=CC=CC=C1)NC2=C(C=C(C=C2)S(=O)(=O)NC(=O)C3=CC=C(C=C3)N4CCC(CC4)[C@H](C5=CC=CC=C5C6=CC=C(C=C6)Cl)O)S(=O)(=O)C(F)(F)F)CCO [AZD4320] (first compound max 1 µM, 7x7, partner max 1 µM)
- combination Emax [1]: 0.194
- combination Emax [2]: 0.698
- combination Emax (Hey (Ovarian Carcinoma) [3]): 0.562
- combination Emax [4]: 0.618
- combination Emax [5]: 0.824
- combination Emax [6]: 1
- combination Emax [7]: 0.715
- combination Emax [8]: 0.396
- combination Emax [9]: 1
- combination Emax [10]: 0.512
- combination Emax [11]: 0.924
- combination Emax (EW-1 (Ewing's Sarcoma) [12]): 0.718
- combination Emax [13]: 0.983
- combination Emax [14]: 0.759
- combination Emax [15]: 0.967
- combination Emax [16]: 0.806
- Bliss excess [17]: -0.0272
- Bliss excess [18]: 0.0552
- Bliss excess (Hey (Ovarian Carcinoma) [19]): 0.0787
- Bliss excess [20]: -0.0641
- Bliss excess [21]: 0.106
- Bliss excess [22]: 0.0349
- Bliss excess [23]: 0.0178
- Bliss excess [24]: 0.0178
- Bliss excess [25]: 0.0324
- Bliss excess [26]: 0.0209
- Bliss excess [27]: 0.0381
- Bliss excess (EW-1 (Ewing's Sarcoma) [28]): 0.0591
- Bliss excess [29]: -0.0002
- Bliss excess [30]: -0.0537
- Bliss excess [31]: -0.0002
- Bliss excess [32]: -0.026

Structure (SMILES): CC(=O)c1c(C)c2cnc(Nc3ccc(N4CCNCC4)cn3)nc2n(C2CCCC2)c1=O [Palbociclib] + CN(CC[C@H](CSC1=CC=CC=C1)NC2=C(C=C(C=C2)S(=O)(=O)NC(=O)C3=CC=C(C=C3)N4CCC(CC4)[C@H](C5=CC=CC=C5C6=CC=C(C=C6)Cl)O)S(=O)(=O)C(F)(F)F)CCO [AZD4320] (first compound max 10 µM, 7x7, partner max 1 µM)
- combination Emax [1]: 0.348
- combination Emax [2]: 0.61
- combination Emax (Hey (Ovarian Carcinoma) [3]): 0.357
- combination Emax [4]: 0.76
- combination Emax [5]: 0.56
- combination Emax [6]: 1
- combination Emax [7]: 0.224
- combination Emax [8]: 0.504
- combination Emax [9]: 1
- combination Emax [10]: 0.172
- combination Emax [11]: 0.915
- combination Emax (EW-1 (Ewing's Sarcoma) [12]): 0.884
- combination Emax [13]: 0.985
- combination Emax [14]: 0.684
- combination Emax [15]: 0.934
- combination Emax [16]: 0.974
- Bliss excess [17]: -0.0748
- Bliss excess [18]: 0.0021
- Bliss excess (Hey (Ovarian Carcinoma) [19]): -0.105
- Bliss excess [20]: -0.149
- Bliss excess [21]: -0.0016
- Bliss excess [22]: 0.0277
- Bliss excess [23]: -0.0469
- Bliss excess [24]: -0.0676
- Bliss excess [25]: -0.0064
- Bliss excess [26]: -0.088
- Bliss excess [27]: -0.0197
- Bliss excess (EW-1 (Ewing's Sarcoma) [28]): -0.0009
- Bliss excess [29]: -0.0551
- Bliss excess [30]: -0.0482
- Bliss excess [31]: -0.0452
- Bliss excess [32]: 0.0091

Structure (SMILES): C[C@@H](c1ccc2nccn2c1)n1nnc2ncc(-c3cnn(C)c3)nc21 [Savolitinib] + CN(CC[C@H](CSC1=CC=CC=C1)NC2=C(C=C(C=C2)S(=O)(=O)NC(=O)C3=CC=C(C=C3)N4CCC(CC4)[C@H](C5=CC=CC=C5C6=CC=C(C=C6)Cl)O)S(=O)(=O)C(F)(F)F)CCO [AZD4320] (first compound max 1 µM, 7x7, partner max 1 µM)
- combination Emax [1]: 0.205
- combination Emax [2]: 0.216
- combination Emax (Hey (Ovarian Carcinoma) [3]): 0.125
- combination Emax [4]: 0.706
- combination Emax [5]: 0.278
- combination Emax [6]: 0.967
- combination Emax [7]: 0.309
- combination Emax [8]: 0.319
- combination Emax [9]: 1
- combination Emax [10]: 0.181
- combination Emax [11]: 0.857
- combination Emax (EW-1 (Ewing's Sarcoma) [12]): 0.574
- combination Emax [13]: 0.998
- combination Emax [14]: 0.252
- combination Emax [15]: 0.511
- combination Emax [16]: 0.276
- Bliss excess [17]: -0.01
- Bliss excess [18]: -0.0435
- Bliss excess (Hey (Ovarian Carcinoma) [19]): -0.0466
- Bliss excess [20]: 0.0075
- Bliss excess [21]: 0.0389
- Bliss excess [22]: 0.111
- Bliss excess [23]: -0.059
- Bliss excess [24]: -0.0666
- Bliss excess [25]: -0.0135
- Bliss excess [26]: -0.0723
- Bliss excess [27]: -0.0878
- Bliss excess (EW-1 (Ewing's Sarcoma) [28]): -0.0384
- Bliss excess [29]: -0.0104
- Bliss excess [30]: -0.0092
- Bliss excess [31]: -0.0901
- Bliss excess [32]: -0.0486
